Laboratory results taken from patent publication US20090054720A1, “Use of histone deacetylase inhibitors in combination with radiation for the treatment of cancer” (priority 2002, published 2009).

What was measured:
[1] = test system: LNCaP spheroids; assay: LNCaP spheroid growth (volume monitoring); type: cell-based, human; conditions: for growth delay: 5-day incubation, vs untreated
Experimental: Cell concentrations were determined by counting trypsinized cells with a hemocytometer. […] The entire content of the above references is hereby incorporated by reference.
The medium was inoculated at 6.7×10^4 cells/mL from trypsinized stock cultures. The resulting suspension was used to seed 100 mm plates with approximately 10^6 cells. After an incubation of 5-7 days, spheroids of ˜200 μm diameter were selected under an inverted phase-contrast microscope (Axiophot 2; Carl Zeiss Ltd., Gottingen, Germany) fitted with an ocular scale using an Eppendorf pipette.
TREATMENT PROTOCOLS: After each treatment, spheroids were washed three times by suspension in fresh medium. […] A minimum of 12 spheroids was used for each condition in duplicate experiments.
The antibody was obtained from the laboratory of David Scheinberg, M. D., Ph.D., Memorial Sloan-Kettering Cancer Center.
Following complete treatment, washed spheroids were placed in separate agar-prepared wells of a 24 well plate. Untreated spheroids were washed and separated immediately after initial selection. The medium in each well was replaced, and volume measurements preformed, twice per week. Using the inverted microscope and ocular scale described previously, the major and minor diameter, dmax and dmin respectively, were determined and spheroid volume calculated as V=(⅙)·π·dmax·dmin^2. Volume monitoring was stopped once a spheroid had exceeded the field of view of the microscope or had fragmented into individual cells or multiple smaller cell clusters.
We describe this relationship through the inequality:
avg(V|S=5M, R=6 Gy)<C+{avg(V|S=5 μM, R=0)−C}+{avg(V|S=0, R=6 Gy)−C}
To test for synergy, we computed 2000 bootstrap replicates of the average log AUC, for each of the four groups, and computed the proportion of replicates where the inequality was not obtained. This proportion is termed the achieved significance level (p-value).

[2] = test system: LNCaP spheroids; assay: Outgrowth assay (colony formation) of spheroids that did not regrow; type: cell-based, human; conditions: 5 μM SAHA 96 h in combination with 6 Gy external beam radiation
[3] = test system: LNCaP spheroids; assay: TUNEL staining of spheroid sections (apoptosis); type: cell-based, human; conditions: for TUNEL staining (apoptosis): SAHA alone
Experimental: At 0, 6, 24, or 48 h post treatment spheroids were washed in cold media, fixed for 4 hr in 4% paraformaldehyde, and placed in paraffin blocks. Serial 5-μm sections of the blocks were cut using a microtome and mounted on poly-L-lysine-coated slides that were fixed in ice cold acetone for 10 min.
A final, 2 min incubation in Hematoxylin was used to counterstain sections. Untreated spheroids were used as controls; positive controls were created using DNase I (Boehringer, Ingelheim, Germany). Images were captured digitally from an inverted phase-contrast microscope using a coupled Pixera Professional Camera and associated software (Pixera Visual Communication Suite, Pixera, Los Gatos, Calif.). Images were scored for positive staining as percentage of reactive cells within the spheroid section.
A two-tailed T test was used to test for significant differences in the percentage of positively stained cells.

[4] = test system: LNCaP monolayer cell culture; conditions: cited from earlier work
[5] = test system: prostate tumor xenografts; conditions: nude mice (Butler et al. 2000); cited from earlier work
[6] = continuous exposure at 5 μM SAHA

## Ac225-HuM195: recombinant humanized Anti-CD33 monoclonal antibody which has been radiolabelled with actinium225
[1]; 100 nCi/mL Ac225-HuM195 for 24 hours alone
  spheroid growth: did not cause growth inhibition

## O=C(CCCCCCC(=O)Nc1ccccc1)NO [SAHA, Suberoylanilide hydroxamic acid]
[1]; 1.25 μM SAHA
  growth delay: 4 days
[1]; 1.25 μM SAHA, 120-hour and continuous exposure
  spheroid growth: delayed but not arrested
[1]; 2.5 μM SAHA
  growth delay: 7 days
[1]; 2.5 μM SAHA, over the 120 h incubation period
  spheroid growth: complete growth arrest
[1]; 5 μM SAHA 96 h + 6 Gy vs additive model, p<0.01
  statistical analysis of synergy (log AUC of tumor volume curve, bootstrap): synergistic inhibition of tumor growth
[1]; 5 μM SAHA 96 h in combination with 6 Gy external beam radiation after 48 h
  spheroid growth: complete growth inhibition
[1]; 5 μM SAHA 120 h in combination with 3 Gy external beam radiation
  delay in spheroid growth: 7 days
[1]; 5 μM SAHA
  growth delay: 13 days
[1]; 5 μM SAHA, continuous incubation
  time of incubation until complete spheroid disruption: 13 to 16 days
[1]; 5 μM SAHA, five days following a 120 hour incubation
  median volume reduction: 2.4 fold
[1]; 24 hour exposure to 100 nCi/mL Ac225-HuM195 followed by 96 h incubation with 5 μM SAHA
  spheroid growth: complete growth inhibition
[1]; 96 h exposure to 5 μM SAHA alone (Example 5)
  initial delay of spheroid growth: 10 days
[1]; 96 h exposure to 5 μM SAHA alone, after a period of 30 days (Example 5)
  spheroid growth after the initial delay: spheroid growth to almost the levels of control untreated spheroid volume
[1]; continuous exposure at 2.5 μM SAHA
  spheroid growth: complete growth suppression
[1]; [6]
  day by which the majority of spheroids disaggregated: ≤ 20 days
  spheroid volume: rapid loss in spheroid volume
[2]
  spheroids forming colonies in the outgrowth assay: none of the 12 spheroids forming colonies
[3]; 48 h after the end of SAHA incubation (5 μM, 96 h)
  TUNEL staining (apoptosis): apoptotic cells are found throughout the spheroid
[3]; SAHA (5 μM, 96 h) and 6 Gy radiation
  TUNEL staining pattern compared with SAHA alone: almost identical pattern
[3]; TUNEL staining and spheroid morphology
  mode of cell death following exposure to SAHA: predominantly by apoptosis
[3]; immediately after the end of a 96 h SAHA incubation (5 μM)
  TUNEL staining (apoptosis): majority of cells on the spheroid surface have undergone apoptosis
[4]; 2.5 μM SAHA, over a 4-day period (Butler et al. 2000)
  monolayer cell growth: complete growth suppression with minimal to no cell kill
[4]; 5 μM SAHA (Butler et al. 2000)
  monolayer cell kill: progressive cell kill starting after 48 hours
[5]
  toxicity: minimal to no detectable toxicity
